According to US12077503B2, “Substituted cyclic amides and their use as herbicides” (FMC CORPORATION, priority 2015, dated 2024):
Like-named read-outs stand apart in the source and are kept apart here.

Columns and labels:
Assay type in all cases: in vivo
[1] = system: barnyardgrass (Echinochloa crus-galli); test: Test A preemergence; conditions: Echinochloa crus-galli, pre-emergence, 240 h, preemergence, read-out: Barnyardgrass plant response rating; for pest or weed control at 125 g/ha: 125 g ai/ha, 0 to 100 scale where 0 is no effect and 100 is complete control, approx. 10 d; for pest or weed control at 500 g/ha: 500 g ai/ha, visual injury rating about 10 d after treatment, 0 to 100 scale (0 no effect, 100 complete control)
Outline: (§1)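 Visual injury scores from 0, no effect, to 100, complete control, were assigned versus untreated controls roughly 10 d after treatment in the greenhouse. Test chemicals, formulated with surfactant in a non-phytotoxic solvent, were applied to planted seeds as a preemergence soil spray or postemergence to one- to two-leaf plants 2 to 10 cm tall, in loam–sand soil.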

Kochia (Kochia scoparia) = test: Test A preemergence; conditions: Bassia scoparia, pre-emergence, 240 h, preemergence, read-out: Kochia plant response rating; for pest or weed control at 125 g/ha: 125 g ai/ha, approx. 10 d; for pest or weed control at 500 g/ha: 500 g ai/ha
Outline: as §1

[2] = system: ryegrass, Italian (Italian ryegrass, Lolium multiflorum); test: Test A preemergence; conditions: Lolium multiflorum, pre-emergence, 240 h, preemergence, read-out: Ryegrass, Italian plant response rating; for pest or weed control at 125 g/ha: 125 g ai/ha, approx. 10 d; for pest or weed control at 500 g/ha: 500 g ai/ha
Outline: as §1

[3] = system: giant foxtail (Setaria faberii); test: Test A preemergence; conditions: Setaria faberi, pre-emergence, 240 h, preemergence, read-out: Foxtail, Giant plant response rating; for pest or weed control at 125 g/ha: 125 g ai/ha, approx. 10 d; for pest or weed control at 500 g/ha: 500 g ai/ha
Outline: as §1

[4] = system: ragweed (common ragweed, Ambrosia elatior); test: Test A preemergence; conditions: Ambrosia artemisiifolia, pre-emergence, 240 h, preemergence, read-out: Ragweed plant response rating; for pest or weed control at 125 g/ha: 125 g ai/ha, approx. 10 d; for pest or weed control at 500 g/ha: 500 g ai/ha
Outline: as §1

[5] = system: pigweed (Amaranthus retroflexus); test: Test A preemergence; conditions: Amaranthus retroflexus, pre-emergence, 240 h, preemergence, read-out: Pigweed plant response rating; for pest or weed control at 125 g/ha: 125 g ai/ha, approx. 10 d; for pest or weed control at 500 g/ha: 500 g ai/ha
[6] = system: wheat (Triticum aestivum); test: Test A postemergence; conditions: Triticum aestivum, post-emergence, 240 h, postemergence, read-out: Wheat plant response rating; for plant injury at 125 g/ha: 125 g ai/ha, visual injury on 0 to 100 scale (0 no effect, 100 complete control), approx. 10 d; for plant injury at 500 g/ha: 500 g ai/ha, 0 to 100 scale, 0 is no effect, 100 is complete control
Outline: as §1

[7] = system: ryegrass, Italian (Italian ryegrass, Lolium multiflorum); test: Test A postemergence; conditions: Lolium multiflorum, post-emergence, 240 h, postemergence, read-out: Ryegrass, Italian plant response rating; for pest or weed control at 125 g/ha: 125 g ai/ha, visual injury on 0 to 100 scale (0 no effect, 100 complete control), approx. 10 d; for pest or weed control at 500 g/ha: 500 g ai/ha, 0 to 100 scale, 0 is no effect, 100 is complete control
Outline: as §1

[8] = system: giant foxtail (Setaria faberii); test: Test A postemergence; conditions: Setaria faberi, post-emergence, 240 h, postemergence, read-out: Foxtail, Giant plant response rating; for pest or weed control at 125 g/ha: 125 g ai/ha, visual injury on 0 to 100 scale (0 no effect, 100 complete control), approx. 10 d; for pest or weed control at 500 g/ha: 500 g ai/ha, 0 to 100 scale, 0 is no effect, 100 is complete control
Outline: as §1

[9] = system: ragweed (common ragweed, Ambrosia elatior); test: Test A postemergence; conditions: Ambrosia artemisiifolia, post-emergence, 240 h, postemergence, read-out: Ragweed plant response rating; for pest or weed control at 125 g/ha: 125 g ai/ha, visual injury on 0 to 100 scale (0 no effect, 100 complete control), approx. 10 d; for pest or weed control at 500 g/ha: 500 g ai/ha, 0 to 100 scale, 0 is no effect, 100 is complete control
Outline: as §1

[10] = system: barnyardgrass (Echinochloa crus-galli); test: Test B flooded paddy test; conditions: Echinochloa crus-galli, 250 g ai/ha, Flood; 0 to 100 scale where 0 is no effect and 100 is complete control; read-out: Barnyardgrass plant response rating
Outline: (§2)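 Rating scale 0–100 (visual, vs untreated controls) after a 13–15 d greenhouse period; application to the flood layer, 3 cm above soil and maintained; plants at 2-leaf stage when treated.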

rice (Oryra sativa) = test: Test B flooded paddy test; conditions: Oryza sativa, 250 g ai/ha, Flood; 0 to 100 scale where 0 is no effect and 100 is complete control; read-out: Rice plant response rating
Outline: as §2

[11] = system: sedge, umbrella (small-flower umbrella sedge, Cyperus difformis); test: Test B flooded paddy test; conditions: Cyperus difformis, 250 g ai/ha, Flood; 0 to 100 scale where 0 is no effect and 100 is complete control; read-out: Sedge, Umbrella plant response rating
Outline: as §2

[12] = system: ducksalad (Heteranthera limosa); test: Test B flooded paddy test; conditions: Heteranthera limosa, 250 g ai/ha, Flood; 0 to 100 scale where 0 is no effect and 100 is complete control; read-out: Ducksalad plant response rating
Outline: as §2

[13] = 0 to 100 scale where 0 is no effect and 100 is complete control
[14] = visual injury rating about 10 d after treatment, 0 to 100 scale (0 no effect, 100 complete control)

SMILES | pest or weed control at 125 g/ha [1] [%] | pest or weed control at 500 g/ha [1] [%] | pest or weed control at 125 g/ha (Kochia (Kochia scoparia); [13]) [%] | pest or weed control at 500 g/ha (Kochia (Kochia scoparia); [14]) [%] | pest or weed control at 125 g/ha [2, 13] [%] | pest or weed control at 125 g/ha [3, 13] [%] | pest or weed control at 125 g/ha [4, 13] [%] | pest or weed control at 125 g/ha [5, 13] [%] | plant injury at 125 g/ha [6] [%] | plant injury at 500 g/ha [6] [%] | pest or weed control at 125 g/ha [7] [%] | pest or weed control at 500 g/ha [7] [%] | pest or weed control at 125 g/ha [8] [%] | pest or weed control at 500 g/ha [8] [%] | pest or weed control at 125 g/ha [9] [%] | pest or weed control at 500 g/ha [9] [%] | pest or weed control at 250 g/ha [10] [%] | pest or weed control at 250 g/ha (rice (Oryra sativa)) [%] | pest or weed control at 250 g/ha [11] [%] | pest or weed control at 250 g/ha [12] [%] | also measured
CN1C[C@H](c2cc(F)cc(F)c2)[C@@H](C(=O)Nc2ccncc2F)C1=O [Compound 1095] | 0 | 60 | 0 | 0 | 0 | 0 | 0 | 0 | 0 | 0 | 0 | 0 | 0 | 0 | 0 | 0 | 0 | 0 | 0 | 50 | pest or weed control at 500 g/ha [2, 14]: 0%; pest or weed control at 500 g/ha [3, 14]: 90%; pest or weed control at 500 g/ha [4, 14]: 0%; pest or weed control at 500 g/ha [5, 14]: 30%
CN1C[C@H](c2cc(F)cc(F)c2)[C@@H](C(=O)Nc2cnccc2Cl)C1=O [Compound 1096] | 0 | 0 | 0 | 0 | 0 | 0 | 0 | 0 | 0 | 0 | 0 | 0 | 0 | 0 | 0 | 0 | 0 | 0 | 0 | 65 | pest or weed control at 500 g/ha [2, 14]: 0%; pest or weed control at 500 g/ha [3, 14]: 0%; pest or weed control at 500 g/ha [4, 14]: 0%; pest or weed control at 500 g/ha [5, 14]: 0%
Cc1cc([C@H]2CN(C)C(=O)[C@@H]2C(=O)Nc2ccc(F)cc2F)ccc1Br [Compound 1100] | 90 | 90 | 50 | 60 | 0 | 90 | 0 | 0 | 0 | 20 | 20 | 20 | 70 | 70 | 0 | 0 | 0 | 0 | 0 | 75 | pest or weed control at 500 g/ha [2, 14]: 30%; pest or weed control at 500 g/ha [3, 14]: 90%; pest or weed control at 500 g/ha [4, 14]: 0%; pest or weed control at 500 g/ha [5, 14]: 0%
Cc1cc([C@H]2CN(C)C(=O)[C@@H]2C(=O)Nc2ccc(F)c(F)c2F)ccc1Br [Compound 1101] | 90 | 90 | 60 | 70 | 30 | 90 | 0 | 0 | 0 | 50 | 20 | 60 | 70 | 80 | 0 | 0 | 30 | 0 | 0 | 60 | pest or weed control at 500 g/ha [2, 14]: 70%; pest or weed control at 500 g/ha [3, 14]: 90%; pest or weed control at 500 g/ha [4, 14]: 40%; pest or weed control at 500 g/ha [5, 14]: 20%
Cc1cc([C@H]2CN(C)C(=O)[C@@H]2C(=O)Nc2ccccc2S(C)(=O)=O)ccc1Br [Compound 1102] | 90 | 90 | 20 |  | 30 | 90 | 0 | 20 | 20 | 50 | 0 | 30 | 80 | 90 | 0 | 20 | 60 | 0 | 0 | 85 | pest or weed control at 500 g/ha (Kochia (Kochia scoparia); [13]): 70%; pest or weed control at 500 g/ha [2, 13]: 60%; pest or weed control at 500 g/ha [3, 13]: 90%; pest or weed control at 500 g/ha [4, 13]: 50%; pest or weed control at 500 g/ha [5, 13]: 50%
